Measured values: patent publication US5506213A, “Adminstration of 2'-halo-2'-deoxy adenosine to treat inflammatory bowel disease” (priority 1994, dated 1996)

Columns and labels:
human monocytes = test: Cellular NAD, ATP and viability in human monocytes exposed to CdA; type: cell-based; conditions: CdA at 1 nM
Procedure: (§1) FIG. 5 is a graph showing the biochemical effects induced in human monocytes in vitro by exposure to […] CdA over a period of 16 hours. The effects of CdA exposure upon monocyte viability (open squares), NAD content (closed squares), RNA synthesis (open circles) and DNA strand breaks (ds-DNA; closed circles) are illustrated.
Cellular NAD content was measured in human monocytes following incubation in culture with CdA (1 nM). An alcohol dehydrogenase cycling assay as described in Jacobson and Jacobson (1976) Arch. Biochem. Biophys. 175:627-634 was used to measure NAD.
Monocytes, cultured and contacted as before described, were detached from the culture wells and were treated with perchloric acid (0.5M) for 10 minutes at 4 degrees C. The mixture was clarified and neutralized with KOH containing potassium phosphate buffer (0.33M) at pH 7.5.Monocyte ATP was quantitated in perchloric acid extracts by anion exchange HPLC, using a Whatman SAX column with an isocratic mobile phase consisting of KH2 PO4 (0.25M), KCl (0.5M) and acetonitrile (2 percent) at pH 3.6 following the procedures of Carson et al. (1980) Proc. Nat'l. Acad, Sci. USA, 77:6865-6869.
NAD^+ consumption for poly(ADP-ribose) synthesis is a known consequence of severe DNA damage in eukaryotic cells. […]

[1] = cited from earlier work
[2] = system: DHL9, Increased ribonucleotide reduction; test: Direct comparative cytotoxicity assay (Table II), DHL9 increased ribonucleotide reduction; type: cell-based, human; conditions: Homo sapiens, 120 h, read-out: ID50: concentration that produced 50 percent reduction in all numbers after five days
Source text: (§2) The two compounds, CdA and CAFdA, were also compared for in vitro activity against another group of human cell lines in a direct comparative assay.
(§3) ^1 Concentration that produced 50 percent reduction in all numbers
^2 CEM cells are T lymphoblasts; DHL9 cells are lymphoblasts.

[3] = system: Peripheral blood lymphocytes; test: Direct comparative cytotoxicity assay (Table II), peripheral blood lymphocytes; type: cell-based, human; conditions: Homo sapiens, Lymphocyte, 120 h, read-out: ID50: concentration that produced 50 percent reduction in all numbers after five days
Source text: as §2, §3

interleukin-1β (IL-1β) = test: Plasma IL-1beta in a rheumatoid arthritis patient, ELISA; type: in vivo, human; conditions: each last infusion day compared to pretreatment values; one patient; preliminary
Source text: Preliminary studies have also measured the concentration of interleukin-1β (IL-1β) in cryopreserved plasma samples from one of the rheumatoid arthritis patients. IL-1β is a lymphokine released by antigen-stimulated macrophages that promotes the formation of interleukin-2 in antigen-activated cytotoxic T cells. IL-2 promotes mitosis in activated cytotoxic T cells.
This patient received CdA, as before, in four treatments over a time period of almost 100 days. Each treatment was by 5-day continuous infusion.
IL-1β concentrations were measured using a commercially available ELISA kit (Cistron).

[4] = system: RNA synthesis in monocytes; test: Monocyte RNA synthesis, 3H-uridine incorporation; type: cell-based, human; conditions: 1 nM CdA; detectable after the first hour of culture
Procedure: as §1
Monocyte RNA synthesis following CdA exposure was studied by measuring the incorporation of ^3 H-uridine. Monocytes were exposed to ^3 H-uridine (20 μCi/10^6 cells) during the final 1 hour of CdA (1 nM) exposure. Radioactivity measured was contained in trichloroacetic acid precipitates collected onto cellulose acetate filters and measured by liquid scintillation counting.

[5] = system: antigen-induced arthritis; test: Antigen-induced arthritis in rabbits; type: in vivo; conditions: CdA 1 mg/kg, tepoxalin 25 mg/kg, naproxen 5 mg/kg
Procedure: Antigen-induced arthritis in rabbits is an animal model of rheumatoid arthritis. In this model, the rabbits are sensitized to an antigen such as ovalbumin or methylated bovine serum albumin in an adjuvant. Several weeks later, the same antigen is injected directly into the joints of the animal. […] Pettipher et al., Br. J. Exp. Path., 69:113-122 (1988).
Rabbits with antigen-induced arthritis were treated with CdA (1 mg/kg), tepoxalin (25 mg/kg) or naproxen (5 mg/kg).

Nc1nc(Cl)nc2c1ncn2[C@H]1C[C@H](O)[C@@H](CO)O1 [CdA, 2-chloro-9,1'-beta-D-2'-deoxyribosyladenine]
exposure time at which decreases in ATP and cell viability were first evident (human monocytes): 16 h
monocyte NAD content (human monocytes; first four hours of exposure): > 95% of control NAD
plasma level at which dose-limiting bone marrow suppression usually occurred ([1]; humans, infusion): greater than 20 nM
concentration ([1]; infusion of 0.1-0.5 mg/kg/day, humans, read-out: plasma concentrations of the drug): 0.01 to 0.05 µM
tolerability ([1]; infusion, no nausea, vomiting or fever): well tolerated
IC50 [2]: 4 µM
IC50 [3]: 0.015 µM
plasma IL-1β level (interleukin-1β (IL-1β)): significantly lower
RNA synthesis [4]: progressive reduction in RNA synthesis
pathological examination of joints compared to untreated controls [5]: milder inflammatory response coupled with much less tissue damage
